We go through 13 compounds from patent EP0974354A1, “Artemisinin derivatives” (The Hong Kong University of Science & Technology, priority 1998, dated 2000).

Converted amounts (≈) assume the structure as drawn. “And” between values parts separate entries of the source, which are not always exact repeats. Equal values may be shown once. Read-outs that look alike come from different tables or passages of the source.

Usually IC50 stands for the concentration at which inhibition is half-maximal. A word on the IC90: it is the concentration needed for an effect of 90%.

For assay [1], the system named is Plasmodium Falciparum W2 Strain (Chloroquine resistant). The assay is described as follows: In vitro screening against Plasmodium falciparum, radiolabelled hypoxanthine incorporation, W2 strain. It counts as cell-based. Particulars: for IC50 / IC90: Plasmodium falciparum; for IC50: read-out: In vitro activity: IC50, W2 Strain (Chloroquine resistant); for IC90: read-out: In vitro activity: IC90, W2 Strain (Chloroquine resistant). How it is done:
(§1) Two parasite strains - W2 resistant to chloroquine, and D6 sensitive to chloroquine but resistant to mefloquine were used.
(§2) The assay relies on incorporation of radiolabelled hypoxanthine by the parasite and inhibition of incorporation is attributed to activity of known or candidate antimalarial drugs. For each assay, proven antimalarials such as chloroquine, mefloquine, quinine, artemisinin and pyrimethamine were used as controls. The incubation period was 66 hours, and the starting parasitemia was 0.2% with 1% hematocrit. The medium was an RPMI-1640 culture with no folate or p-aminobenzoic acid. […] If a compound was submitted with no prior knowledge of activity, it was dissolved directly in dimethyl sulphoxide (DMSO), and diluted 400 fold with complete culture medium. […] These dilutions were performed automatically by a Biomek 1000 Liquid Handling System in 96-well microtiter plates. The diluted drugs were then transferred to test plates, 200 µl of parasitized erythrocytes were added, and incubated at 37°C in a controlled environment of 5% CO2, 5% O2 and 90% N2. After 42 hours, 25 µl of ^3H-hypoxanthine was added, and the plates incubated for an additional 24 hours. After 66 hours, the plates were frozen at -70°C to lyse the red cells, and then thawed and harvested onto glass fiber filter mats in a 96-well harvester. The filter mats were then counted in a scintillation counter.
(§3) A prescreen format can be used wherein a 3-dilution assay may be used to determine activity at high medium or low concentrations. The concentrations were selected as 50,000, 500 and 50 ng ml^-1. These were performed in duplicate on a 96-well format plate with 14 test compounds and one known (standard) compound per plate. The system was automated with a Biomek diluter for mixing and diluting the drugs, and adding drugs and parasites to a test plate.
(§4) In the prescreen format, if the […] […] If the AF has a ">", then the IC value is greater than the prescreen dilution value; thus "AF>250" means that the IC value is greater than 250 ng ml^-1 and no further screening is carried out. In such cases, values of 0.00 are entered for IC values.

Assay [2] concerns Plasmodium Falciparum D6 Strain (Chloroquine sensitive). Nature of the assay: In vitro screening against Plasmodium falciparum, radiolabelled hypoxanthine incorporation, D6 strain. Type of assay: cell-based. Particulars: for IC50 / IC90: Plasmodium falciparum. How it is done:
as §1, §2, §3, §4

Assay [3] has as its system parasite of the genus Plasmodium. Nature of the assay: Antimalarial activity, general statement in the description, test not specified. Conditions: qualitative statement.
The mark [4] stands for this setting: W2 Strain (Chloroquine resistant), 66 hours incubation, Albumax medium.
The mark [5] stands for this setting: D6 Strain (Chloroquine sensitive), 66 hours incubation, Albumax medium.
[6] abbreviates: W2, 66 h, 66 hours incubation, Albumax medium.
The mark [7] stands for this setting: D6, 66 h, D6 Strain (Chloroquine sensitive), 66 hours incubation, Albumax medium, read-out: In vitro activity: IC50.
[8] abbreviates: D6, 66 h, D6 Strain (Chloroquine sensitive), 66 hours incubation, Albumax medium, read-out: In vitro activity: IC90.

For the compound `CC1CCC2C(C)C(OCc3ccc4ccccc4c3)OC3OC4(C)CCC1C32OO4` (single isomer, unassigned) [3(α-isomer), 10α-[(2'-naphthylmethyl)oxy]dihydroartemisinin], in assay [1] (setting [4]), the “In vitro activity: (IC10)” value amounted to 0.62 ng/mL, the “In vitro activity: IC50” value came to 1.54 ng/mL and the “In vitro activity: IC90” value is 3.83 ng/mL. Further, in assay [2] (setting [5]), the “In vitro activity: (IC10)” value came out at 0.93 ng/mL, the “In vitro activity: IC50” value stood at 1.24 ng/mL and the “In vitro activity: IC90” value turned out to be 1.67 ng/mL.
Regarding `C[C@H]1[C@@H](OCc2ccc3ccccc3c2)O[C@@H]2O[C@@]3(C)CC[C@H]4[C@H](C)CC[C@@H]1[C@@]24OO3` [3(β-isomer), 10β-[(2'-naphthylmethyl)oxy]dihydroartemisinin], in assay [1] (setting [6]), the IC50 amounted to 0.64 ng/mL (≈ 1.51 nM) and the IC90 stood at 0.78 ng/mL (≈ 1.84 nM). Moreover, in assay [1] (W2, 66 h), the “In vitro activity: IC50” value was 0.63 ng/mL and the “In vitro activity: IC90” value was 1.25 ng/mL. Further, in assay [2] (setting [5]), the “In vitro activity: (IC10)” value is 0.31 ng/mL and 0.51 ng/mL; the “In vitro activity: IC50” value came out at 0.64 ng/mL; the “In vitro activity: IC90” value is 0.80 ng/mL. Besides, the IC50 in assay [2] (setting [7]) was 0.4 ng/mL (≈ 0.942 nM). Besides, the IC90 in assay [2] (setting [8]) came out at 0.53 ng/mL (≈ 1.25 nM).
As to `CC1CCC2C(C)C(Oc3ccnc4ccccc34)OC3OC4(C)CCC1C32OO4` (stereo not drawn) [10β-(4'-Quinolinoxy)dihydroartemisinin], in assay [3], the antimalarial activity result is recorded as “particularly interesting antimalarial activity”.
For the compound `C[C@H]1[C@H](OCc2cccc3ccccc23)O[C@@H]2O[C@@]3(C)CC[C@H]4[C@H](C)CC[C@@H]1[C@@]24OO3` [11(α-isomer)], in assay [1] (setting [6]), the IC50 was found to be 0.67 ng/mL (≈ 1.58 nM) and the IC90 is 1.01 ng/mL (≈ 2.38 nM). Also, in assay [1] (W2, 66 h), the “In vitro activity: IC50” value came out at 0.70 ng/mL and the “In vitro activity: IC90” value was 1.17 ng/mL. Also, in assay [2] (setting [5]), the “In vitro activity: (IC10)” value is 1.03 ng/mL and 1.20 ng/mL; the “In vitro activity: IC50” value amounted to 1.47 ng/mL; the “In vitro activity: IC90” value came out at 1.81 ng/mL. The IC50 in assay [2] (setting [7]) was found to be 1.42 ng/mL (≈ 3.34 nM). Moreover, the IC90 in assay [2] (setting [8]) is 1.97 ng/mL (≈ 4.64 nM).
Consider `C[C@H]1[C@@H](OCC(F)(F)F)O[C@@H]2O[C@@]3(C)CC[C@H]4[C@H](C)CC[C@@H]1[C@@]24OO3` [Example 1, 10β-[(2',2',2'-trifluoroethyl)oxy]dihydroartemisinin], for which the IC50 in assay [1] (setting [6]) came to 0.26 ng/mL (≈ 0.71 nM); in assay [2] (D6, 66 h, read-out: In vitro activity: IC50), 0.77 ng/mL (≈ 2.1 nM). The “In vitro activity: (IC10)” value was 0.19 ng/mL and 0.20 ng/mL in assay [1] (setting [4]); 0.57 ng/mL in assay [2] (setting [5]). Further, the “In vitro activity: IC50” value in assay [1] (setting [4]) turned out to be 0.51 ng/mL. Also, the IC90 in assay [2] (D6, 66 h, read-out: In vitro activity: IC90) was found to be 1.04 ng/mL (≈ 2.84 nM).
As to `C[C@H]1[C@@H](Oc2ccnc3cc(C(F)(F)F)ccc23)O[C@@H]2O[C@@]3(C)CC[C@H]4[C@H](C)CC[C@@H]1[C@@]24OO3` [Example 2, 10β-[4'-(7'-trifluoromethylquinolinoxy)]dihydroartemisinin], the IC50 was found to be 0.67 ng/mL (≈ 1.4 nM) in assay [1] (setting [6]) and 0.71 ng/mL (≈ 1.48 nM) in assay [2] (setting [7]). Besides, the IC90 in assay [1] (setting [6]) stood at 0.81 ng/mL (≈ 1.69 nM); in assay [2] (setting [8]) it was 0.93 ng/mL (≈ 1.94 nM). The “In vitro activity: (IC10)” value worked out at 0.56 ng/mL in assay [1] (W2, 66 h) and 0.55 ng/mL in assay [2] (setting [5]). Further, in assay [3], the antimalarial activity result is recorded as “particularly interesting antimalarial activity”.
`C[C@H]1[C@@H](OCc2ccccc2F)O[C@@H]2O[C@@]3(C)CC[C@H]4[C@H](C)CC[C@@H]1[C@@]24OO3` [Example 8]: the IC50 in assay [1] (setting [6]) turned out to be 0.83 ng/mL (≈ 2.11 nM); in assay [2] (setting [7]) it was 0.75 ng/mL (≈ 1.91 nM). The 90% effect concentration (IC90) in assay [1] (setting [6]) was 1.08 ng/mL (≈ 2.75 nM); in assay [2] (setting [8]), 1.22 ng/mL (≈ 3.11 nM). For the same compound, the “In vitro activity: (IC10)” value was found to be 0.63 ng/mL in assay [1] (W2, 66 h) and 0.46 ng/mL in assay [2] (setting [5]).
Turning to `C[C@H]1[C@@H](OCc2cccc(F)c2)O[C@@H]2O[C@@]3(C)CC[C@H]4[C@H](C)CC[C@@H]1[C@@]24OO3` [Example 9], the IC50 in assay [1] (setting [6]) turned out to be 0.45 ng/mL (≈ 1.15 nM); in assay [2] (setting [7]), 0.36 ng/mL (≈ 0.917 nM). For the same compound, the IC90 in assay [1] (setting [6]) stood at 0.59 ng/mL (≈ 1.5 nM); in assay [2] (setting [8]) it was 1.7 ng/mL (≈ 4.33 nM). Moreover, the “In vitro activity: (IC10)” value is 0.35 ng/mL in assay [1] (W2, 66 h) and 0.08 ng/mL in assay [2] (setting [5]).
Regarding `C[C@H]1[C@@H](OCc2ccc(F)cc2)O[C@@H]2O[C@@]3(C)CC[C@H]4[C@H](C)CC[C@@H]1[C@@]24OO3` [Example 10], the IC50 in assay [1] (setting [6]) came out at 0.25 ng/mL (≈ 0.637 nM); in assay [2] (setting [7]) it was 0.34 ng/mL (≈ 0.866 nM). Further, the results for the IC90 in assay [1] (setting [6]) and in assay [2] (setting [8]) were 0.86 ng/mL (≈ 2.19 nM) and 0.58 ng/mL (≈ 1.48 nM), respectively. Also, the “In vitro activity: (IC10)” value amounted to 0.07 ng/mL in assay [1] (W2, 66 h) and 0.20 ng/mL in assay [2] (setting [5]).
On to `C[C@H]1[C@@H](OCc2c3ccccc3cc3ccccc23)O[C@@H]2O[C@@]3(C)CC[C@H]4[C@H](C)CC[C@@H]1[C@@]24OO3` [Example 12], for which, in assay [1] (setting [6]), the IC50 turned out to be 132 ng/mL (≈ 277 nM) and the IC90 was found to be 173 ng/mL (≈ 365 nM). In assay [1] (W2, 66 h), the “In vitro activity: IC50” value worked out at 187.76 ng/mL and the “In vitro activity: IC90” value was found to be 301.34 ng/mL. Moreover, the “In vitro activity: (IC10)” value in assay [2] (D6, 66 h) was determined as 102.79 ng/mL. The IC50 in assay [2] (D6, 66 h, read-out: In vitro activity: IC50, D6 Strain (Chloroquine sensitive), 66 hours incubation, Albumax medium) came out at 136 ng/mL (≈ 286 nM). Moreover, the concentration for an effect of 90% (IC90) in assay [2] (D6, 66 h, read-out: In vitro activity: IC90, D6 Strain (Chloroquine sensitive), 66 hours incubation, Albumax medium) turned out to be 179 ng/mL (≈ 378 nM).
On to `C[C@H]1[C@@H](OCc2cccc3c2ccc2ccccc23)O[C@@H]2O[C@@]3(C)CC[C@H]4[C@H](C)CC[C@@H]1[C@@]24OO3` [Example 13], for which the IC50 is 0.62 ng/mL (≈ 1.31 nM) in assay [1] (setting [6]) and 0.58 ng/mL (≈ 1.22 nM) in assay [2] (setting [7]). For the same compound, the IC90 in assay [1] (setting [6]) stood at 0.79 ng/mL (≈ 1.66 nM); in assay [2] (setting [8]), 0.77 ng/mL (≈ 1.62 nM). The “In vitro activity: (IC10)” value in assay [1] (W2, 66 h) amounted to 0.50 ng/mL; in assay [2] (setting [5]), 0.44 ng/mL.
On to `C[C@H]1[C@@H](OCc2ccc3ccc4cccc5ccc2c3c45)O[C@@H]2O[C@@]3(C)CC[C@H]4[C@H](C)CC[C@@H]1[C@@]24OO3` [Example 14], for which the IC50 in assay [1] (setting [6]) was 17.2 ng/mL (≈ 34.5 nM); in assay [2] (setting [7]), 37.9 ng/mL (≈ 76.1 nM). In addition, the IC90 in assay [1] (setting [6]) turned out to be 24.9 ng/mL (≈ 49.9 nM); in assay [2] (setting [8]), 49.5 ng/mL (≈ 99.2 nM). Besides, the “In vitro activity: (IC10)” value is 11.90 ng/mL in assay [1] (W2, 66 h) and 29.09 ng/mL in assay [2] (setting [5]).
Regarding `C[C@H]1[C@@H](Oc2ccnc3ccccc23)O[C@@H]2O[C@@]3(C)CC[C@H]4[C@H](C)CC[C@@H]1[C@@]24OO3` [Example 15], in assay [1] (setting [6]), the IC50 was 1.24 ng/mL (≈ 3.01 nM) and the IC90 was 6.45 ng/mL (≈ 15.7 nM). Moreover, in assay [1] (W2, 66 h), the “In vitro activity: IC50” value is 2.03 ng/mL and the “In vitro activity: IC90” value came to 9.11 ng/mL. In addition, in assay [2] (setting [5]), the “In vitro activity: (IC10)” value is 0.23 ng/mL and 0.41 ng/mL; the “In vitro activity: IC50” value was 0.61 ng/mL; the “In vitro activity: IC90” value turned out to be 0.91 ng/mL. For the same compound, in assay [2] (setting [7]), the IC50 is 0.43 ng/mL (≈ 1.04 nM). Further, the IC90 in assay [2] (setting [8]) was 0.8 ng/mL (≈ 1.94 nM).
